In US20110098556A1, “Computer-Based Method And System For Imaging-Based Dynamic Function Evaluation Of An Organ” (priority 2008, published 2011):
Several values for one entry are separate records, joined by “and”; a condition that tells them apart may be missing. Equal entries are not always repeated.

Key:
liver [1] = test: T1-weighted Gd-EOB-DTPA-enhanced DHCE-MRI liver function test, healthy volunteers; assay type: in vivo, human; set-up: key to median HEF / HEF, mean / HEF, median / HEF, max / HEF: ratio of extrapolated hepatic retention curve to vascular peak of HE curve; details: for median HEF: healthy volunteers; for HEF, mean / HEF, max / HEF, median: n=20 healthy volunteers
Procedure: Deconvoluted liver response curves were analyzed with respect to HEF and RBF. HEF was described by Brown et al using Tc-99-disofenin scintigraphy as a measurement of hepatic extraction efficiency, and could be understood as the percentage of tracer that would have been extracted if the tracer had been injected directly into the afferent blood supply of the liver without subsequent recirculation. […] The HE curve can be divided into the vascular phase and the hepatocyte retention phase, which describes the hepatic extraction. We calculated HEF using a monoexponential fit to the HE-curve data points from 420 to 1800 seconds after the time of injection of the tracer. The starting point at 420 seconds was chosen after visual inspection of the deconvoluted HE curves. The fitted curve, the hepatic retention curve (HRC, a mono-exponentially decaying fitted curve), is then extrapolated back to the time of the vascular peak value, and HEF is defined as the ratio between the extrapolated HRC curve and the vascular peak of the HE curve (also shown in FIG. 3),
RBF, giving a relative measurement of blood flow in the liver, is described as the initial peak value of the HE curve. RBF values were normalized to the segment with the highest RBF, i.e. the segment with the highest RBF was set to 100%.
The input function was defined by a region of interest (ROI) placed in the hilar part of the portal vein. Due to patient motion, the input function ROI was adjusted in each dynamic acquisition so the voxels represent portal vein blood. Liver response function curves were defined by placing three ROIs in each liver segment (I to VIII with segment IV divided into IVa and IVb). The relative enhancement over time of the voxels in the ROI was regarded as the parenchymal response function for that ROI. Data points were interpolated using equidistant spacing (60 s) over the 90-minute time period. […] Care was taken to as far as possible to exclude major blood vessels and visible bile ducts when the ROIs were placed. Segments were defined and nomenclature adhered to as proposed by Strasberg SM. Terminology of liver anatomy and liver resections: coming to grips with hepatic Babel. J Am Coll Surg 1997; 184(4):413-434, which is incorporated herein by reference in its entirety. However, other segmentations may be used in other embodiments.
HEF and RBF were calculated for each ROI both with TSVD and FA+tail using specific in-house software written in MATLAB® (Mathworks, […], USA). Thus, each ROI yielded two values for HEF and RBF respectively. For TSVD, a static truncation threshold was set at c=0.07. A cosine function from 0 to π/2 with the initial height of the last point of x(t) and y(t) was added for the DA performed with FA, and the length of the tail was set to be three times the length of the total sampling period of 90 minutes. […]
To arrive at an estimation of the model parameters, an iterative method was used. After assigning starting values to kij and f the impulse response function h(t) was estimated through Eq 10, and an output function yout(t) was calculated through yout(t)=h(t) ? x(t)+f·x(t), using the input function x(t) from the portal vein as an estimate for the blood pool signal in Equation 7. The response function y(t) on the other hand was measured in a ROI in the liver parenchyma, and the parameters kij and f were determined by iteratively minimizing the squared difference diff=(y(t)−yout(t))^2, see FIG. 17.
For some response curves either T10, or both T5 and T10, were beyond the last measured time point, and no value was set. Tmax, T5 and T10 were measured in seconds.
where g(t) is the fitted curve and the fitting parameters c2 and TU describe contrast uptake, while c1 and TE describe the liver contrast excretion. Both TE and TU were calculated in minutes.
T1-weighted Gd-EOB-DTPA-enhanced DHCE-MRI was performed on 20 healthy volunteers, 10 men and 10 women, ages ranging from 22 to 45 years. […]

[2] = in vivo; cited from earlier work
liver [3] = test: Gd-EOB-DTPA-enhanced DHCE-MRI in patients with primary biliary cirrhosis (PBC); assay type: in vivo, human
Procedure: (§1) T1-weighted Gd-EOB-DTPA-enhanced DHCE-MRI was performed on 20 healthy volunteers, 10 men and 10 women, and on patients with an established diagnosis of PBC. Routine serum liver function tests were performed at inclusion in the study on the healthy volunteers, and for the patients it was recorded from the most recent visit documented in their clinical charts. The healthy volunteers had no history of hepato-biliary disease, previous hepato-biliary surgery or alcohol abuse. All subjects were asked to be fasting for at least four hours prior to the examination. For each patient, relevant clinical data was documented and together with the results from the liver function tests they were used to calculate the CPS, Mayo risk score and MELD score.
(§2) T1-weighted Gd-EOB-DTPA-enhanced DHCE-MRI was performed using a Philips Intera 1.5T scanner (Best, Holland), with a Philips four-channel SENSE body coil according to the protocol in Example 1. Deconvolutional analysis was performed using truncated singular value decomposition (TSVD). HEF and irBF were calculated as described above. […] The Mann-Whitney U-test was used for test of significance and the significance level was set to […]. All segments in every patient and controls yielded an observation and in the statistical analysis, all observations were regarded as independent observations, even if they originated from one individual. Thus, the study yielded 180 observations for each of the abovementioned parameters from the controls, and 108 observations from PBC patients.

liver [4] = test: Gd-EOB-DTPA-enhanced MRI in patients with primary sclerosing cholangitis (PSC); assay type: in vivo, human; set-up: HEF: unit not given here
Procedure: as §1, with “MRI” for “DHCE-MRI”, “PSC.” for “PBC.”
as §2, with “MRI” for “DHCE-MRI”, “protocol as outlined” for “protocol”, “PSC” for “PBC”

[5] = median for healthy controls (n = 180)
[6] = individual PBC patient, median of 9 segmental values
[7] = median for PBC patients (n = 108)
[8] = individual PSC patient, median of 9 segmental values
[9] = median for PSC patients (segments n = 108)

For `CCOc1ccc(CC(CN(CCN(CC(=O)[O-])CC(=O)[O-])CC(=O)[O-])N(CC(=O)[O-])CC(=O)[O-])cc1.[Gd+3].[Na+].[Na+]` (stereo not drawn) [Gd-EOB-DTPA, Gadolinium ethoxybenzyl diethylenetriaminepentaacetic acid], the “signal intensity half-time (TE)” value (liver [1]; compared with total scan time) was > 90 min, the “mean HEF” value (liver [1]; example 1, healthy volunteers) was “above 20%” and the “hepatic extraction fraction (HEF)” value (liver [1]; example curve of FIG. 3, FA+tail) was “approximately 17%”. For the same molecule, the “median HEF” value (liver [1]; left hemiliver, FA+tail) was 0.194, the “median HEF” value (liver [1]; left hemiliver, TSVD) was 0.196 and the HEF (liver [1]; median for 20 healthy controls (n = 180 segments), TSVD) was 0.201. It also gave a T5 (liver [1]; [5]) of 1600 s, a T10 (liver [1]; [5]) of 2295 s and a Tmax (liver [1]; [5]) of 33.33 min. For the same molecule, the “HEF, mean” value (liver [1]; 180 segmental values, deconvolution by TSVD) was 0.215, the “HEF, max” value (liver [1]; FA + tail) was 0.440 and the “HEF, median” value (liver [1]; FA + tail) was 0.210. The “HEF, max” value (liver [1]; TSVD) was 0.436, the “HEF, median” value (liver [1]; TSVD) was 0.208 and the “HEF, mean” value (liver [1]; deconvolution by FA + tail) was 0.217. For the same molecule, the “median HEF” value (liver [1]; right hemiliver, FA+tail) was 0.224, the “median HEF” value (liver [1]; right hemiliver, TSVD) was 0.218 and the “fraction eliminated by renal excretion (glomerular filtration)” value [2] was 50%. The hepatic clearance [2] was “about 50%”, the “T5 (time from Tmax to five percent decay)” value (liver [3]; [6]) was 24.33 min and 18.17 min and 40.67 min and 33 min and 24.83 min and 21.67 min and 34 min and 24.67 min and 25.67 min and 13.5 min and 4 min and 15.7 min and the “T10 (time from Tmax to ten percent decay)” value (liver [3]; [6]) was 30.5 min and 28 min and 38 min and 34 min and 50.5 min and 32.5 min and 48 min and 41 min and 41.33 min and 30 min and 15.7 min and 24 min. The “Tmax (time to maximum intensity)” value (liver [3]; [6]) was 48.33 min and 35 min and 36.67 min and 66.67 min and 43.33 min and 60 min and 22.67 min and 40 min and 8 min and 3.33 min and 51.67 min, the HEF (liver [3]; individual PBC patient, median of 9 segmental values, TSVD) was 0.163 (2×) and 0.225 and 0.302 and 0.150 and 0.093 and 0.226 and 0.199 and 0.155 and 0.106 and 0.047 and 0.152 and the “TE (excretion half-time)” value (liver [3]; individual PBC patient, median of 9 segments, bi-exponential fit) was 3780 min and 1591 min and 4791 min and 6961 min and 4241 min and 1180 min and 8011 min and 2130 min and 2481 min and 1141 min and 2830 min and 1281 min. The T5 (liver [3]; [7]) was 1440 s, the T10 (liver [3]; [7]) was 1920 s and the TE (liver [3]; [7]) was 2850 min. The Tmax (liver [3]; [7]) was 41 min, the HEF (liver [3]; median for PBC patients (n = 108 segments)) was 0.161 and the T5 (liver [4]; [8]) was 1720 s and 980 s and 1620 s and 940 s and 1420 s and 1380 s and 1170 s and 1400 s and 1250 s and 1500 s and 1340 s and 2140 s. The T10 (liver [4]; [8]) was 1980 s and 1560 s and 1950 s and 1720 s and 2645 s and 1840 s and 2340 s and 2600 s and 2050 s and 2490 s and 2460 s and 3540 s, the Tmax (liver [4]; [8]) was 56.67 min and 41.67 min and 46.67 min and 27 min and 31 min and 30 min and 48 min and 21.33 min and 36.67 min and 28 min and 63.33 min and the HEF (liver [4]; individual PSC patient, median of 9 segmental values, TSVD) was 0.158 and 0.213 and 0.221 and 0.307 and 0.140 and 0.220 and 0.159 and 0.136 (2×) and 0.123 and 0.174 and 0.240. The TE (liver [4]; individual PSC patient, median of 9 segments, bi-exponential fit) was 1427 min and 110 min and 184 min and 102 min and 244 min and 211 min and 251 min and 203 min and 147 min and 128 min and 341 min and 452 min, the HEF (liver [4]; [9]) was 0.176 and the T5 (liver [4]; [9]) was 1340 s. It also gave a T10 (liver [4]; [9]) of 2050 s, a TE (liver [4]; [9]) of 204 min and a Tmax (liver [4]; [9]) of 37.67 min.
